Test results as given in the NIST ThermoML archive (doi:10.1021/acs.jced.7b00159).
Numbers after ± are expanded uncertainties.

Settings: Liquid, Pendant drop shape

CCCCCCCCCCC [undecane] + O=C=O
interfacial tension [mN/m]
Settings | 323.15 K | 353.15 K
1030 kPa | 19.26 ± 1 | –
1100 kPa | – | 17.09 ± 1
2100 kPa | 17.25 ± 1 | 15.83 ± 1
3100 kPa | 15.05 ± 1 | 14.38 ± 1
4100 kPa | 13.12 ± 1 | 13.17 ± 1
5100 kPa | 10.98 ± 1 | 11.69 ± 1
6100 kPa | 8.68 ± 1 | 10.45 ± 1
7100 kPa | 7.2 ± 1 | 9.31 ± 1
8100 kPa | 4.95 ± 1 | 7.45 ± 1
9100 kPa | – | 6.45 ± 1
10100 kPa | – | 5.59 ± 1
11100 kPa | – | 4.37 ± 1
12100 kPa | – | 3.39 ± 1

CCCCCCCCCCCC [dodecane] + O=C=O
interfacial tension [mN/m]
Settings | 323.15 K | 353.15 K
1100 kPa | 19.27 ± 1 | 16.94 ± 1
2100 kPa | 17.29 ± 1 | 16.02 ± 1
3100 kPa | – | 14.66 ± 1
3600 kPa | 14.47 ± 1 | –
4100 kPa | 13.55 ± 1 | 13.4 ± 1
5100 kPa | – | 11.99 ± 1
6100 kPa | 9.51 ± 1 | 10.69 ± 1
7100 kPa | 7.68 ± 1 | 9.44 ± 1
8100 kPa | 5.57 ± 1 | 8.32 ± 1
9100 kPa | – | 6.96 ± 1
10100 kPa | – | 5.88 ± 1
11100 kPa | – | 4.8 ± 1

CCCCCCCCCCCCCC [tetradecane] + O=C=O
interfacial tension [mN/m]
Settings | 323.15 K | 353.15 K
1050 kPa | 20.79 ± 1 | –
1200 kPa | – | 18.19 ± 1
2100 kPa | – | 17.01 ± 1
2110 kPa | 18.89 ± 1 | –
3050 kPa | 17.05 ± 1 | –
3200 kPa | – | 15.62 ± 1
3950 kPa | 15.41 ± 1 | –
4040 kPa | – | 14.48 ± 1
5020 kPa | 13.51 ± 1 | –
5120 kPa | – | 13.21 ± 1
5960 kPa | 11.59 ± 1 | –
6110 kPa | – | 12.2 ± 1
7030 kPa | 9.79 ± 1 | –
7090 kPa | – | 10.94 ± 1
8000 kPa | 8.27 ± 1 | –
8090 kPa | – | 9.9 ± 1
8940 kPa | 6.5 ± 1 | –
9020 kPa | 6.35 ± 1 | –
10050 kPa | 3.98 ± 1 | 7.61 ± 1
11120 kPa | – | 6.5 ± 1
12010 kPa | – | 5.5 ± 1

CCCCCCCCCCCCCCCCCCCC [eicosane] + O=C=O
353.15 K
Settings | interfacial tension [mN/m]
1000 kPa | 20.35 ± 1
2000 kPa | 18.99 ± 1
4000 kPa | 16.13 ± 1
6000 kPa | 13.37 ± 1
8000 kPa | 10.34 ± 1
10000 kPa | 7.85 ± 1
12000 kPa | 5.55 ± 1
14000 kPa | 3.71 ± 1
16000 kPa | 2.38 ± 1

CCCCCCCCCC [decane] + O=C=O
interfacial tension [mN/m]
Settings | 323.15 K | 353.15 K
900 kPa | 18.82 ± 1 | –
1200 kPa | – | 16.45 ± 1
2100 kPa | 16.35 ± 1 | 15.25 ± 1
2990 kPa | 14.77 ± 1 | –
3020 kPa | – | 14.07 ± 1
4100 kPa | 12.56 ± 1 | 12.52 ± 1
5100 kPa | – | 11.28 ± 1
6100 kPa | 8.43 ± 1 | 9.86 ± 1
7100 kPa | 6.85 ± 1 | –
7110 kPa | – | 8.6 ± 1
8100 kPa | 4.89 ± 1 | 7.85 ± 1
9100 kPa | – | 5.91 ± 1
10100 kPa | – | 4.65 ± 1

CCCCCCCCCCCCCCC [pentadecane] + O=C=O
interfacial tension [mN/m]
Settings | 323.15 K | 353.15 K
1050 kPa | 21.31 ± 1 | –
1500 kPa | – | 18.19 ± 1
2100 kPa | – | 17.27 ± 1
2130 kPa | 19.32 ± 1 | –
3100 kPa | 17.53 ± 1 | 16.23 ± 1
4050 kPa | 15.63 ± 1 | –
4200 kPa | – | 14.66 ± 1
5130 kPa | 13.49 ± 1 | –
5400 kPa | – | 13.29 ± 1
6100 kPa | 11.98 ± 1 | 12.36 ± 1
7100 kPa | 10.16 ± 1 | –
7900 kPa | – | 10.2 ± 1
8100 kPa | 8.46 ± 1 | –
8900 kPa | – | 8.9 ± 1
9000 kPa | 6.66 ± 1 | –
9600 kPa | 5.32 ± 1 | –
10000 kPa | – | 7.87 ± 1
10100 kPa | 4.72 ± 1 | –
11100 kPa | – | 6.78 ± 1
12100 kPa | – | 5.82 ± 1
13100 kPa | – | 4.66 ± 1
14100 kPa | – | 3.75 ± 1
15100 kPa | – | 3.06 ± 1

CCCCCCCCCCCCC [tridecane] + O=C=O
interfacial tension [mN/m]
Settings | 323.15 K | 353.15 K
1100 kPa | 20 ± 1 | –
1500 kPa | – | 17.72 ± 1
2100 kPa | 18.27 ± 1 | –
2600 kPa | – | 16.09 ± 1
4100 kPa | 14.42 ± 1 | 14.09 ± 1
5100 kPa | 12.93 ± 1 | 12.85 ± 1
6100 kPa | 11.47 ± 1 | 12.02 ± 1
7100 kPa | 9.42 ± 1 | 10.41 ± 1
8100 kPa | – | 9.58 ± 1
8600 kPa | 6.83 ± 1 | –
9100 kPa | – | 8.18 ± 1
9600 kPa | 4.91 ± 1 | –
10100 kPa | – | 7.07 ± 1
10600 kPa | 2.83 ± 1 | –
11100 kPa | – | 6.1 ± 1
12100 kPa | – | 4.84 ± 1
13100 kPa | – | 3.89 ± 1
14100 kPa | – | 3.14 ± 1
15100 kPa | – | 2.21 ± 1
16100 kPa | – | 1.68 ± 1
17100 kPa | – | 1.14 ± 1

CCCCCCCCCCCCCCCC [hexadecane] + O=C=O
Settings | interfacial tension [mN/m]
323.15 K, 1030 kPa | 21.5 ± 1
323.15 K, 2050 kPa | 19.61 ± 1
323.15 K, 2960 kPa | 17.95 ± 1
323.15 K, 4010 kPa | 15.94 ± 1
323.15 K, 5020 kPa | 14.12 ± 1
323.15 K, 5960 kPa | 12.43 ± 1
323.15 K, 7000 kPa | 10.52 ± 1
323.15 K, 8020 kPa | 8.71 ± 1
323.15 K, 8960 kPa | 6.98 ± 1
323.15 K, 9040 kPa | 7.5 ± 1
323.15 K, 10020 kPa | 5.02 ± 1
353.15 K, 1200 kPa | 18.68 ± 1
353.15 K, 2100 kPa | 17.48 ± 1
353.15 K, 3200 kPa | 16.05 ± 1
353.15 K, 4040 kPa | 14.99 ± 1
353.15 K, 5120 kPa | 13.67 ± 1
353.15 K, 6110 kPa | 12.5 ± 1
353.15 K, 7090 kPa | 11.37 ± 1
353.15 K, 8090 kPa | 10.25 ± 1
353.15 K, 8990 kPa | 9.28 ± 1
353.15 K, 10050 kPa | 8.1 ± 1
353.15 K, 11120 kPa | 7.11 ± 1
353.15 K, 12010 kPa | 6.12 ± 1

CCCCCCCCCCCCCCCCCCC [nonadecane] + O=C=O
interfacial tension [mN/m]
Settings | 323.15 K | 353.15 K
1100 kPa | – | 19.52 ± 1
2060 kPa | – | 18.23 ± 1
2400 kPa | 20.57 ± 1 | –
3100 kPa | – | 16.88 ± 1
3200 kPa | 18.91 ± 1 | –
4140 kPa | – | 15.58 ± 1
4200 kPa | 17.25 ± 1 | –
5050 kPa | 15.27 ± 1 | –
5140 kPa | – | 14.35 ± 1
6060 kPa | – | 13.27 ± 1
6150 kPa | 12.93 ± 1 | –
7100 kPa | 11.35 ± 1 | –
7120 kPa | – | 12.06 ± 1
8050 kPa | – | 11.03 ± 1
8200 kPa | 9.61 ± 1 | –
9200 kPa | 7.78 ± 1 | 9.76 ± 1
10000 kPa | 6.39 ± 1 | –
10020 kPa | – | 8.94 ± 1
11100 kPa | – | 7.87 ± 1
12000 kPa | – | 7 ± 1
13070 kPa | – | 5.97 ± 1
14040 kPa | – | 5.08 ± 1

CCCCCCCCCCCCCCCCCC [octadecane] + O=C=O
interfacial tension [mN/m]
Settings | 323.15 K | 353.15 K
400 kPa | – | 20.05 ± 1
410 kPa | 23.35 ± 1 | –
1100 kPa | – | 19.16 ± 1
1300 kPa | 21.23 ± 1 | –
2000 kPa | 18.53 ± 1 | –
2200 kPa | – | 17.73 ± 1
2670 kPa | 17.13 ± 1 | –
3200 kPa | 15.63 ± 1 | –
3300 kPa | – | 16.22 ± 1
4000 kPa | 14.12 ± 1 | –
4180 kPa | – | 15.13 ± 1
5100 kPa | 11.94 ± 1 | –
5300 kPa | – | 13.86 ± 1
6150 kPa | – | 12.92 ± 1
6250 kPa | 9.84 ± 1 | –
7000 kPa | 8.65 ± 1 | –
7200 kPa | – | 11.8 ± 1
8100 kPa | – | 10.68 ± 1
8150 kPa | 5.07 ± 1 | –
9100 kPa | 3.15 ± 1 | –
9300 kPa | – | 9.66 ± 1
10100 kPa | 1.83 ± 1 | 8.87 ± 1
11100 kPa | – | 7.66 ± 1
12100 kPa | – | 6.63 ± 1
13000 kPa | – | 5.74 ± 1
14000 kPa | – | 4.91 ± 1
15000 kPa | – | 4.05 ± 1
16300 kPa | – | 3.08 ± 1
17400 kPa | – | 2.49 ± 1

CCCCCCCCCCCCCCCCC [heptadecane] + O=C=O
interfacial tension [mN/m]
Settings | 323.15 K | 353.15 K
1100 kPa | – | 18.47 ± 1
1200 kPa | 20.95 ± 1 | –
2100 kPa | – | 17.15 ± 1
2600 kPa | 18.3 ± 1 | –
3300 kPa | 16.99 ± 1 | 15.48 ± 1
4100 kPa | 15.49 ± 1 | 14.62 ± 1
5100 kPa | 13.95 ± 1 | –
5200 kPa | – | 13.38 ± 1
6100 kPa | 11.78 ± 1 | –
6720 kPa | – | 11.71 ± 1
7100 kPa | – | 11.26 ± 1
7300 kPa | 9.69 ± 1 | –
8120 kPa | 8.52 ± 1 | –
8150 kPa | – | 10.09 ± 1
9300 kPa | – | 9.14 ± 1
10100 kPa | 5.08 ± 1 | –
10600 kPa | – | 7.78 ± 1
12600 kPa | – | 5.78 ± 1
14100 kPa | – | 4.3 ± 1
15100 kPa | – | 3.57 ± 1
16200 kPa | – | 2.81 ± 1
